In publication PMC7971191 (Journal of medicinal chemistry, 2020):

Key:
[1] = system: wild-type HIV-1 (NL4-3 strain); experiment: Cell-based antiviral assay; conditions: for fold less active than 12a in antiviral assays: compared with 12a
wild-type HIV-1 protease = wild-type HIV-1 protease (Human immunodeficiency virus type 1 group M subtype B, UniProt P12497, Q495K); format: biochemical, HIV-1 (NL4-3 strain); conditions: for fold less active than the corresponding tert-leucine analogue: 12b vs 12a, 15b vs 15a, inhibitory potency
HIV-1 protease I50V/A71V = HIV-1 protease I50V/A71V (Human immunodeficiency virus type 1 group M subtype B, UniProt P12497, A559V/I538V/Q495K); format: biochemical, HIV-1 (NL4-3 strain); conditions: Ki compared with 12a

## Cc1cccc(C)c1OCC(=O)N[C@@H](Cc1ccccc1)C[C@H](O)[C@H](Cc1ccccc1)NC(=O)O[C@H]1CO[C@H]2OCC[C@H]21 [Compound 5, reference compound]
[1]; compared with compound 4
  fold better antiviral potency than 4: 2 fold

## COC(=O)N[C@H](C(=O)N[C@@H](Cc1ccccc1)[C@@H](O)C[C@H](Cc1ccccc1)NC(=O)O[C@H]1CO[C@H]2OCC[C@H]21)C(C)(C)C [Compound 12a, (3R,3aS,6aR)-Hexahydrofuro[2,3-b]furan-3-yl ((2S,4S,5S)-4-hydroxy-5-((S)-2-((methoxycarbonyl)amino)-3,3-dimethylbutanamido)-1,6-diphenylhexan-2-yl)carbamate]
[1]; wild-type HIV-1, compared with 15a
  fold more potent than 15a in antiviral assays: 3 fold

## COC(=O)NC1(C(=O)N[C@@H](Cc2ccccc2)[C@@H](O)C[C@H](Cc2ccccc2)NC(=O)O[C@H]2CO[C@H]3OCC[C@H]32)CCCC1 [Compound 12b, (3R,3aS,6aR)-Hexahydrofuro[2,3-b]furan-3-yl ((2S,4S,5S)-4-hydroxy-5-(1-((methoxycarbonyl)amino)cyclopentane-1-carboxamido)-1,6-diphenylhexan-2-yl)carbamate]
wild-type HIV-1 protease
  fold less active than the corresponding tert-leucine analogue: > 2500 fold

## COC(=O)N[C@@H](C)C(=O)N[C@@H](Cc1ccccc1)[C@@H](O)C[C@H](Cc1ccccc1)NC(=O)O[C@H]1CO[C@H]2OCC[C@H]21 [Compound 12d, (3R,3aS,6aR)-Hexahydrofuro[2,3-b]furan-3-yl ((2S,4S,5S)-4-hydroxy-5-((S)-2-((methoxycarbonyl)amino)propanamido)-1,6-diphenylhexan-2-yl)carbamate]
[1]
  fold less active than 12a in antiviral assays: 6 fold

## COC(=O)N[C@H](C(=O)N[C@@H](Cc1ccccc1)[C@@H](O)C[C@H](Cc1ccccc1)NC(=O)O[C@H]1CO[C@H]2OCC[C@H]21)C(C)C [Compound 12e, (3R,3aS,6aR)-Hexahydrofuro[2,3-b]furan-3-yl ((2S,4S,5S)-4-hydroxy-5-((S)-2-((methoxycarbonyl)amino)-3-methylbutanamido)-1,6-diphenylhexan-2-yl)carbamate]
[1]
  fold less active than 12a in antiviral assays: 5 fold
wild-type HIV-1 protease; valine analogue compared with alanine analogue 12d / 12a
  fold less active against wild-type protease: 4 fold

## COC(=O)N[C@H](C(=O)N[C@@H](Cc1ccccc1)C[C@H](O)[C@H](Cc1ccccc1)NC(=O)O[C@H]1CO[C@H]2OCC[C@H]21)C(C)(C)C [Compound 15a, (3R,3aS,6aR)-Hexahydrofuro[2,3-b]furan-3-yl ((2S,3S,5S)-3-hydroxy-5-((S)-2-((methoxycarbonyl)amino)-3,3-dimethylbutanamido)-1,6-diphenylhexan-2-yl)carbamate]
HIV-1 protease I50V/A71V
  fold more active than 12a against the I50V/A71V variant: 4 fold

## COC(=O)NC1(C(=O)N[C@@H](Cc2ccccc2)C[C@H](O)[C@H](Cc2ccccc2)NC(=O)O[C@H]2CO[C@H]3OCC[C@H]32)CCCC1 [Compound 15b, (3R,3aS,6aR)-Hexahydrofuro[2,3-b]furan-3-yl ((2S,3S,5S)-3-hydroxy-5-(1-((methoxycarbonyl)amino)cyclopentane-1-carboxamido)-1,6-diphenylhexan-2-yl)carbamate]
wild-type HIV-1 protease
  fold less active than the corresponding tert-leucine analogue: 560 fold
